In patent US12503436B2, “Compounds and compositions for treating conditions associated with STING activity” (NOVARTIS PHARMA AG, priority 2021, dated 2025):
pEC50: −log10 of the molar value.

Biological target: STING (Homo sapiens, UniProt Q86WV6, G230A/H232R/R293Q/R71H)
Experiment: STING reporter assay in THP1-Dual KO-IFNAR2 cells (2′3′cGAMP stimulation, luciferase reporter)
Type: cell-based
Conditions: 15 μM 2′3′cGAMP stimulation, 24 h, read-out: Pharmaron, THP1_IFNAR2 STING 24 h Luci Normalized: GeoMean EC50
Outline: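 EC50 from secreted luciferase (QUANTI-Luc Plus luminescence of supernatant) after 24 h at 37 °C, 5% CO2. Cells: THP1-Dual KO-IFNAR2, treated with compound (0.0017-100 μM final) plus lipofected 2′3′cGAMP at 15 μM final.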

Chain of STING (Q86WV6 whole entry R71H/G230A/H232R/R293Q): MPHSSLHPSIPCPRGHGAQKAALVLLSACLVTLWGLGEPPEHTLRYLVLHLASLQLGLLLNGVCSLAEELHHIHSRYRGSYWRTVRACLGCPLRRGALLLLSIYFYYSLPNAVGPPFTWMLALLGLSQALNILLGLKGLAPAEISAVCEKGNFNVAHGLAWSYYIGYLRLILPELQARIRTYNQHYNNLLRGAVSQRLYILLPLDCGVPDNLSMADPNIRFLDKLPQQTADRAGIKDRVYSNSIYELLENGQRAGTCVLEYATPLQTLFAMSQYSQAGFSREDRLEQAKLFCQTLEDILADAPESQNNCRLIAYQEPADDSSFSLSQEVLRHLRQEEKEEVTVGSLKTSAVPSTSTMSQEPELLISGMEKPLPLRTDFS

| Molecule | pEC50 |
| --- | --- |
| CC1(C(=O)Nc2c[nH]c3ccc(O[C@H]4C[C@@H](c5ccc(C(F)(F)F)cc5)C4)cc23)CCOCC1 [Compound 363, 4-methyl-N-(5-(cis-3-(4-(trifluoromethyl)phenyl)cyclobutoxy)-1H-indol-3-yl)tetrahydro-2H-pyran-4-carboxamide] | 6.00 to 6.70 |
| COC1CC(C(=O)Nc2c[nH]c3ccc(O[C@H]4C[C@H](c5ccc(C(F)(F)F)cc5)C4)cc23)C1 (stereo partly drawn) [Compound 572, 3-methoxy-N-(5-(trans-3-(4-(trifluoromethyl)phenyl)cyclobutoxy)-1H-indol-3-yl)cyclobutane-1-carboxamide] | 6.70 to 7.40 |
| CC(=O)Nc1c[nH]c2ccc(OC[C@@H]3[C@H]4CN(CC(F)(F)F)C[C@@H]34)cc12 [Compound 120, N-(5-(((1R,5S,6r)-3-(2,2,2-trifluoroethyl)-3-azabicyclo[3.1.0]hexan-6-yl)methoxy)-1H-indol-3-yl)acetamide] | 4.00 to 5.30 |
| 2,2-dimethyl-N-(5-(2-((3aR,5r,6aS)-2-(2,2,2-trifluoroethyl)octahydrocyclopenta[c]pyrrol-5-yl)ethoxy)-1H-indol-3-yl)cyclopropane-1-carboxamide [Compound 368] | 6.00 to 6.70 |
| CC(C)(C)C(=O)Nc1c[nH]c2ccc(O[C@H]3C[C@@H](c4ccc(C(F)(F)F)cc4)C3)cc12 [Compound 354, N-(5-(cis-3-(4-(trifluoromethyl)phenyl)cyclobutoxy)-1H-indol-3-yl)pivalamide] | 6.00 to 6.70 |
| CC(=O)N[C@H]1C[C@](C)(C(=O)Nc2c[nH]c3ccc(O[C@H]4C[C@@H](c5ccc(C(F)(F)F)cc5)C4)cc23)C1 [Compound 413, trans-3-acetamido-1-methyl-N-(5-(cis-3-(4-(trifluoromethyl)phenyl)cyclobutoxy)-1H-indol-3-yl)cyclobutane-1-carboxamide] | 5.30 to 6.00 |
| O=C(Nc1c[nH]c2ccc(O[C@H]3C[C@@H](c4ccc(C(F)(F)F)cc4)C3)cc12)C1(F)CC1 [Compound 302, 1-fluoro-N-(5-(cis-3-(4-(trifluoromethyl)phenyl)cyclobutoxy)-1H-indol-3-yl)cyclopropane-1-carboxamide] | 6.00 to 6.70 |
| CO[C@H]1C[C@@H](C(=O)Nc2c[nH]c3ccc(O[C@H]4C[C@H](c5ccc(C(F)(F)F)cc5)C4)cc23)C1 [Compound 246, cis-3-methoxy-N-(5-(trans-3-(4-(trifluoromethyl)phenyl)cyclobutoxy)-1H-indol-3-yl)cyclobutane-1-carboxamide] | 6.70 to 7.40 |
| CC(=O)Nc1c[nH]c2ccc(Oc3ccc(C(F)(F)F)cn3)cc12 [Compound 116, N-(5-((5-(trifluoromethyl)pyridin-2-yl)oxy)-1H-indol-3-yl)acetamide] | 4.00 to 5.30 |
| 3-methyl-N-(5-(2-((3aR,5r,6aS)-2-(2,2,2-trifluoroethyl)octahydrocyclopenta[c]pyrrol-5-yl)ethoxy)-1H-indol-3-yl)oxetane-3-carboxamide [Compound 382] | 6.00 to 6.70 |
| N#C[C@H]1C[C@@H]1C(=O)Nc1c[nH]c2ccc(O[C@H]3C[C@@H](c4ccc(C(F)(F)F)cc4)C3)cc12 (stereo in doubt) [Compound 332, cis-2-cyano-N-(5-(cis-3-(4-(trifluoromethyl)phenyl)cyclobutoxy)-1H-indol-3-yl)cyclopropane-1-carboxamide] | 6.00 to 6.70 |
| CC1(C(=O)Nc2c[nH]c3ccc(OCCc4ccc(C(F)(F)F)cc4)cc23)CNC1 [Compound 569, 3-methyl-N-(5-(4-(trifluoromethyl)phenethoxy)-1H-indol-3-yl)azetidine-3-carboxamide] | 5.30 to 6.00 |
| O=C(Nc1c[nH]c2ccc(OCC[C@@H]3C[C@@H]4CN(CC(F)(F)F)C[C@@H]4C3)cc12)C1CC(F)(F)C1 [Compound 588, 3,3-difluoro-N-(5-(2-((3aR,5r,6aS)-2-(2,2,2-trifluoroethyl)octahydrocyclopenta[c]pyrrol-5-yl)ethoxy)-1H-indol-3-yl)cyclobutane-1-carboxamide] | 6.70 to 7.40 |
| N#CC1CCC1C(=O)Nc1c[nH]c2ccc(OCc3ccc(C(F)(F)F)cc3)cc12 (stereo not drawn) [Compound 351, 2-cyano-N-(5-((4-(trifluoromethyl)benzyl)oxy)-1H-indol-3-yl)cyclobutane-1-carboxamide] | 6.00 to 6.70 |
| CC(=O)Nc1c[nH]c2ccc(CC[C@@H]3C[C@@H]4CN(CC(F)(F)F)C[C@@H]4C3)cc12 [Compound 457, N-(5-(2-((3aR,5r,6aS)-2-(2,2,2-trifluoroethyl)octahydrocyclopenta[c]pyrrol-5-yl)ethyl)-1H-indol-3-yl)acetamide] | 6.00 to 6.70 |
| O=C(Nc1c[nH]c2ccc(O[C@H]3C[C@H](c4ccc(C(F)(F)F)nc4)C3)cc12)[C@H]1C[C@@H](CO)C1 [Compound 552, cis-3-(hydroxymethyl)-N-(5-(trans-3-(6-(trifluoromethyl)pyridin-3-yl)cyclobutoxy)-1H-indol-3-yl)cyclobutane-1-carboxamide] | 6.00 to 6.70 |

Next, values leading:

| pEC50 | Molecule |
| --- | --- |
| 4.00 to 5.30 | CC(=O)Nc1c[nH]c2cc(Br)c(OCCc3ccc(C(F)(F)F)cc3)cc12 [Compound 173, N-(6-bromo-5-(4-(trifluoromethyl)phenethoxy)-1H-indol-3-yl)acetamide] |
| 4.00 to 5.30 | CN1CC(C(=O)Nc2c[nH]c3ccc(OCC[C@@H]4C[C@@H]5CN(CC(F)(F)F)C[C@@H]5C4)cc23)C1 [Compound 303, 1-methyl-N-(5-(2-((3aR,5r,6aS)-2-(2,2,2-trifluoroethyl)octahydrocyclopenta[c]pyrrol-5-yl)ethoxy)-1H-indol-3-yl)azetidine-3-carboxamide] |
| 5.30 to 6.00 | CCO/C=C/c1ccc2[nH]cc(NC(=O)C3CCC3)c2c1 [Compound 143, (E)-N-(5-(2-ethoxyvinyl)-1H-indol-3-yl)cyclobutanecarboxamide] |
| 6.00 to 6.70 | COC(CCc1ccc2[nH]cc(NC(=O)C3CCC3)c2c1)c1ccc(C(F)(F)F)cc1 (stereo not drawn) [Compound 133, N-(5-(3-methoxy-3-(4-(trifluoromethyl)phenyl)propyl)-1H-indol-3-yl)cyclobutanecarboxamide] |
| 6.00 to 6.70 | CO[C@H]1C[C@](C)(C(=O)Nc2c[nH]c3ccc(OCC[C@@H]4C[C@@H]5CN(CC(F)(F)F)C[C@@H]5C4)cc23)C1 [Compound 427, trans-3-methoxy-1-methyl-N-(5-(2-((3aR,5r,6aS)-2-(2,2,2-trifluoroethyl)octahydrocyclopenta[c]pyrrol-5-yl)ethoxy)-1H-indol-3-yl)cyclobutane-1-carboxamide] |
| 6.70 to 7.40 | CC(=O)Nc1c[nH]c2ccc(CCOc3ccc(OCC(F)(F)F)cc3)cc12 [Compound 452, N-(5-{2-[4-(2,2,2-trifluoroethoxy)phenoxy]ethyl}-1H-indol-3-yl)acetamide] |
| 6.00 to 6.70 | CC1(C(=O)Nc2c[nH]c3ccc(OCC[C@@H]4C[C@@H]5CN(CC(F)(F)F)C[C@@H]5C4)cc23)CCCO1 (stereo partly drawn) [Compound 160, 2-methyl-N-(5-(2-((3aR,5r,6aS)-2-(2,2,2-trifluoroethyl)octahydrocyclopenta[c]pyrrol-5-yl)ethoxy)-1H-indol-3-yl)tetrahydrofuran-2-carboxamide] |
| 4.00 to 5.30 | CC(=O)Nc1c[nH]c2ccc(CCOC3CN(CC(F)(F)F)C3)cc12 [Compound 377, N-(5-(2-((1-(2,2,2-trifluoroethyl)azetidin-3-yl)oxy)ethyl)-1H-indol-3-yl)acetamide] |
| 5.30 to 6.00 | CC(=O)Nc1c[nH]c2ccc(OCCc3ccc(C(F)(F)F)nc3)cc12 [Compound 113, N-(5-(2-(6-(trifluoromethyl)pyridin-3-yl)ethoxy)-1H-indol-3-yl)acetamide] |
| 6.00 to 6.70 | CC1(C(=O)Nc2c[nH]c3ccc(OCC[C@@H]4C[C@@H]5CN(CC(F)(F)F)C[C@@H]5C4)cc23)CCC1 [Compound 369, 1-methyl-N-(5-(2-((3aR,5r,6aS)-2-(2,2,2-trifluoroethyl)octahydrocyclopenta[c]pyrrol-5-yl)ethoxy)-1H-indol-3-yl)cyclobutane-1-carboxamide] |
| 5.30 to 6.00 | CC(=O)Nc1c[nH]c2ccc(OCCC3CC4(C3)CN(CC(F)(F)F)C4)cc12 [Compound 171, N-(5-(2-(2-(2,2,2-trifluoroethyl)-2-azaspiro[3.3]heptan-6-yl)ethoxy)-1H-indol-3-yl)acetamide] |
| 6.00 to 6.70 | CC1OC(C)C1C(=O)Nc1c[nH]c2ccc(OCc3ccc(C(F)(F)F)cc3)cc12 (stereo not drawn) [Compound 428, 2,4-dimethyl-N-(5-((4-(trifluoromethyl)benzyl)oxy)-1H-indol-3-yl)oxetane-3-carboxamide] |
| 6.70 to 7.40 | C[C@]1(C(=O)Nc2c[nH]c3ccc(OCCc4ccc(C(F)(F)F)cc4)cc23)C[C@@H](O)C1 [Compound 445, (cis)-3-hydroxy-1-methyl-N-(5-(4-(trifluoromethyl)phenethoxy)-1H-indol-3-yl)cyclobutane-1-carboxamide] |
| 4.00 to 5.30 | CC(=O)Nc1c[nH]c2ccc(CC(Cc3ccc(C(F)(F)F)cc3)NC(C)=O)cc12 (stereo not drawn) [Compound 516, N-(1-(3-acetamido-1H-indol-5-yl)-3-(4-(trifluoromethyl)phenyl)propan-2-yl)acetamide] |
| 5.30 to 6.00 | CC(=O)Nc1c[nH]c2c(Br)cc(CCOc3ccc(C(F)(F)F)cc3)cc12 [Compound 578, N-(7-bromo-5-(2-(4-(trifluoromethyl)phenoxy)ethyl)-1H-indol-3-yl)acetamide] |
| 6.70 to 7.40 | CC(=O)Nc1c[nH]c2ccc(CCOc3ccc(C(F)(F)F)cc3)cc12 [Compound 127, N-(5-(2-(4-(trifluoromethyl)phenoxy)ethyl)-1H-indol-3-yl)acetamide] |
| 6.70 to 7.40 | CC1(C(=O)Nc2c[nH]c3ccc(OC[C@@H]4C[C@@H]5CN(CC(F)(F)F)C[C@@H]5C4)cc23)COC1 [Compound 479, 3-methyl-N-(5-(((3aR,5r,6aS)-2-(2,2,2-trifluoroethyl)octahydrocyclopenta[c]pyrrol-5-yl)methoxy)-1H-indol-3-yl)oxetane-3-carboxamide] |
